In article PMC11295495 (Neuropharmacology, 2023):
Where two headings read alike, the source gives them in different places.

Assays:
a9a10 nAChR [1] = molecular target: T1, a9a10 nAChR (Homo sapiens, UniProt Q9GZZ6+Q9UGM1); experiment: two-electrode voltage-clamp in Xenopus oocytes, inhibition of […] ACh responses; format: cell-based
a9a10 nAChR [2] = molecular target: T1, a9a10 nAChR; experiment: as above; format: cell-based; remark: listed apart in the source
a9 nAChR = a9 nAChR (Homo sapiens, UniProt Q9UGM1); experiment: as above; format: cell-based
a7 nAChR = a7 nAChR (Homo sapiens, UniProt P36544); experiment: cell-based
a7 nAChR, sequence (P36544 23-502): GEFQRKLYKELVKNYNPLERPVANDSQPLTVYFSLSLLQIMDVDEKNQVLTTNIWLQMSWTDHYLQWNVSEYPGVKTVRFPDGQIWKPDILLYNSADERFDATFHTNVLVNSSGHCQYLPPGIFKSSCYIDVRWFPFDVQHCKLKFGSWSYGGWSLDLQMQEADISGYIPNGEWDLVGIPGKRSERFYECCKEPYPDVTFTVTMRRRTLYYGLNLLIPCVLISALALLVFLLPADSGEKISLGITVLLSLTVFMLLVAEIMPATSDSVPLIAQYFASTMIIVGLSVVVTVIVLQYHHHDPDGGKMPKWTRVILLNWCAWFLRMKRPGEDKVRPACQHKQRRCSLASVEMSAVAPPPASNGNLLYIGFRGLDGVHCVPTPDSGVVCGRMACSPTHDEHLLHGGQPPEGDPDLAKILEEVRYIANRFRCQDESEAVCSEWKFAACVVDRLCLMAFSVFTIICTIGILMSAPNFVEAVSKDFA

T1 sequence (Q9UGM1 23-479): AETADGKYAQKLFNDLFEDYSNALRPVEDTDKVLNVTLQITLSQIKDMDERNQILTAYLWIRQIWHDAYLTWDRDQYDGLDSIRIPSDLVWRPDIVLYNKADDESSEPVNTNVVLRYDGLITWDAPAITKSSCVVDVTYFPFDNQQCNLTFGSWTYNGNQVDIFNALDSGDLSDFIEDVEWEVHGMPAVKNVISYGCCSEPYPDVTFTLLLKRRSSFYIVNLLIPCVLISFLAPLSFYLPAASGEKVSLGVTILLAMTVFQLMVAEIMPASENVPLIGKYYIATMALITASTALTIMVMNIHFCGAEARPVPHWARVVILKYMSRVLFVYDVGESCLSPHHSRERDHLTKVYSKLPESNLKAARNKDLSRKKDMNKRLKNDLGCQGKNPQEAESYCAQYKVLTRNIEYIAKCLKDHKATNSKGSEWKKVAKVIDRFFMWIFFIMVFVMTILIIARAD
T1 sequence (Q9GZZ6 25-450): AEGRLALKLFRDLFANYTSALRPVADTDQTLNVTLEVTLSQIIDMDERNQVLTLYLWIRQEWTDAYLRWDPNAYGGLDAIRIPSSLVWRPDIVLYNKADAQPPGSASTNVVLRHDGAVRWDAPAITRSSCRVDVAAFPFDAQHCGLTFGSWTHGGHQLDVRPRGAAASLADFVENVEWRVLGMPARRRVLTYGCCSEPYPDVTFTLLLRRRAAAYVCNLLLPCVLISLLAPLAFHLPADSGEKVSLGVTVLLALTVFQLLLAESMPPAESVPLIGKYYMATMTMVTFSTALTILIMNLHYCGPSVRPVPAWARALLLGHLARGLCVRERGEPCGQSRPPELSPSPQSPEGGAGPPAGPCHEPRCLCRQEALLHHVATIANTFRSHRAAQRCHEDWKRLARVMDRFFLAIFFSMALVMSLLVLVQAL
a9 nAChR, sequence (Q9UGM1 23-479): as the sequence (Q9UGM1 23-479) above

SMILES | IC50 (a9a10 nAChR [1]) [µM] | IC50 (a9a10 nAChR [2]) [µM] | IC50 (a9 nAChR) [µM] | IC50 (a7 nAChR) [µM]
CC[N+]1(CC)CCN(c2cccc(C#N)c2)CC1 [mCN-diEPP, 4-(3-cyanophenyl)-1,1-diethylpiperazin-1-ium] | 17.1 ± 1.54 | – | – | –
CCN1C[C@]2(COC(=O)c3ccccc3N3C(=O)C[C@H](C)C3=O)CC[C@H](OC)[C@@]34[C@@H]5C[C@H]6[C@H](OC)[C@@H]5[C@](O)(C[C@@H]6OC)[C@@](O)([C@@H](OC)[C@H]23)[C@@H]14 [methyllycaconitine] | – | 0.24 ± 0.13 | 0.19 ± 0.02 | 0.12 ± 0.05
CN1CCC[C@H]1c1cccnc1 [nicotine] | 437 ± 73 | – | – | –
